Values of other authors in patent US7994218B2, “Simple pantoic acid ester neopentyl sulfonyl ester cyclization release prodrugs of acamprosate, compositions thereof, and methods of use” (XenoPort, Inc., priority 2007, dated 2011).

Assays:
[1] = acamprosate doses about 1-2 gm per day
cocaine conditioned mice = details: 100 mg/kg acamprosate for 3 days

CC(=O)NCCCS(=O)(=O)O [acamprosate, 3-(Acetylamino)propylsulfonic acid]
time at which steady-state plasma concentration occurs post-dose [1]: 3 to 8 h
effect on relapse-like behavior (cocaine conditioned mice): attenuated relapse-like behavior
